These compounds were tested against T1, human TREK-1 receptor (Homo sapiens, UniProt O95069) (assay: TREK receptor screening: TREK-1 mediated currents by manual patch clamp in transfected frog oocytes). Conditions: at 1 mMol; None = 1.000.
T1 construct: expressed in transfected cells
T1 sequence (O95069 1-426): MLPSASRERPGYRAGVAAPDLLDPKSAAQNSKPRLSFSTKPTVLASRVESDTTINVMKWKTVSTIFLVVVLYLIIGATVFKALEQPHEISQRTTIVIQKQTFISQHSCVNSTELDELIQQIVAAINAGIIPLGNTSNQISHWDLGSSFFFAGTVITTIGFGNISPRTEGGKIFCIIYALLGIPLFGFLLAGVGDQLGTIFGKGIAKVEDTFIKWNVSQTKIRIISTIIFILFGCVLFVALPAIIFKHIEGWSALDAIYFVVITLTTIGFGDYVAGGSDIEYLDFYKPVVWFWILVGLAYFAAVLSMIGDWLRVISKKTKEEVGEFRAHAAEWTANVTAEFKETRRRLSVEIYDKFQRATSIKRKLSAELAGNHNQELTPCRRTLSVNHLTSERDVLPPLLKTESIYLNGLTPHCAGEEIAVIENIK
Format: cell-based
Description: The human TREK-1 receptor is a temperature sensitive, mechano-gated potassium channels, present in human skin and neuronal cells. It is known to be involved in the signaling of temperature sensation. Here it cooperates with other ion channels in the relevant cell types.
To screen for TREK-1 receptor channel blockers, frog oocyte were transfected to transiently overexpress the human TREK-1 receptor. A substance database was screened on the cells. Read out was TREK-1medited currents, detected by manual patch clamp.

Blockade of TREK-1 receptor, F.I.	SMILES
0.773	CCCCCCCCC(O)CO (centres unmarked) [1,2-Decandiol]
0.855	CCCCCCC(O)CO (centres unmarked) [1,2-Octandiol]

More lines, now with the values behind:

SMILES	Blockade of TREK-1 receptor, F.I.
CCCCCCCCCCC(O)CO (centres unmarked) [1,2-Dodecandiol]	0.733
CCCCC(O)CO (centres unmarked) [1,2-Hexandiol]	0.942
CNCCC(Oc1ccc(C(F)(F)F)cc1)c1ccccc1 (centres unmarked) [Fluoxetine, reference compound]	0.679

Source: patent publication US11123272B2, “Cosmetic blends” (Symrise AG, priority 2016, dated 2021)
